Source: US10710978B2, “STK4 inhibitors for treatment of hematologic malignancies” (Dana-Farber Cancer Institute, Inc., priority 2015, dated 2020)
Read-outs that look alike come from different tables or passages of the source.

Assays:
Assay in all cases: KiNativ assay
Assay type in all cases: binding
[1] = test system: ABL, ARG; details: H929 live cell
Experimental: (§1) Biochemical IC50s of the compounds of the present disclosure against various kinases were measured in a KiNativ assay. Compounds were screened in duplicate at 10 μM in H929 live cell. IC50 was measured via Mass spectroscopy (MS).

[2] = biological target: AKT1 (Homo sapiens (Human), UniProt P31749); details: H929 live cell
Experimental: as §1

[3] = biological target: BARK1 (Homo sapiens (Human), UniProt P25098); details: H929 live cell
Experimental: as §1

[4] = biological target: CDK7 (Homo sapiens (Human), UniProt P50613); details: H929 live cell
Experimental: as §1

[5] = biological target: CSK (Homo sapiens (Human), UniProt P41240); details: H929 live cell
Experimental: as §1

[6] = biological target: CaMK1d (Homo sapiens (Human), UniProt Q8IU85); details: H929 live cell
Experimental: as §1

[7] = test system: CaMK2a, CaMK2b, CaMK2d, CaMK2g; details: H929 live cell
Experimental: as §1

[8] = test system: FYN, SRC, YES; details: H929 live cell
Experimental: as §1

[9] = biological target: GCK (Homo sapiens (Human), UniProt Q12851); details: H929 live cell
Experimental: as §1

[10] = biological target: IRAK1 (Homo sapiens (Human), UniProt P51617); details: H929 live cell
Experimental: as §1

[11] = biological target: JAK1 domain1 (Homo sapiens (Human), UniProt P23458); details: H929 live cell
Experimental: as §1

[12] = biological target: KHS1 (Homo sapiens (Human), UniProt Q9Y4K4); details: H929 live cell
Experimental: as §1

[13] = test system: KSR1, KSR2; details: H929 live cell
Experimental: as §1

[14] = biological target: MAP2K6 (Homo sapiens (Human), UniProt P52564); details: H929 live cell
Experimental: as §1

[15] = biological target: MAP3K1 (Homo sapiens (Human), UniProt Q13233); details: H929 live cell
Experimental: as §1

[16] = biological target: MAP3K4 (Homo sapiens (Human), UniProt Q9Y6R4); details: H929 live cell
Experimental: as §1

[17] = biological target: MAP3K5 (Homo sapiens (Human), UniProt Q99683); details: H929 live cell
Experimental: as §1

[18] = test system: MARK2, MARK3; details: H929 live cell
Experimental: as §1

[19] = biological target: MSK1 domain1 (Homo sapiens (Human), UniProt O75582); details: H929 live cell
Experimental: as §1

[20] = biological target: MSK2 domain1 (Homo sapiens (Human), UniProt O75676); details: H929 live cell
Experimental: as §1

[21] = biological target: NEK3 (Homo sapiens (Human), UniProt P51956); details: H929 live cell
Experimental: as §1

[22] = biological target: NuaK1 (Homo sapiens (Human), UniProt O60285); details: H929 live cell
Experimental: as §1

[23] = biological target: PAN3 (Homo sapiens (Human), UniProt Q58A45); details: H929 live cell
Experimental: as §1

[24] = biological target: PIK3C3 (Homo sapiens (Human), UniProt Q8NEB9); details: H929 live cell
Experimental: as §1

[25] = biological target: PIK3CG (Homo sapiens (Human), UniProt P48736); details: H929 live cell
Experimental: as §1

[26] = biological target: PKCi (Homo sapiens (Human), UniProt P41743); details: H929 live cell
Experimental: as §1

[27] = biological target: PRP4 (Homo sapiens (Human), UniProt Q13523); details: H929 live cell
Experimental: as §1

[28] = biological target: RSK1 domain2 (Homo sapiens (Human), UniProt Q15418); details: H929 live cell
Experimental: as §1

[29] = biological target: SRPK1 (Homo sapiens (Human), UniProt Q96SB4); details: H929 live cell
Experimental: as §1

[30] = biological target: SRPK2 (Homo sapiens (Human), UniProt P78362); details: H929 live cell
Experimental: as §1

[31] = biological target: TAO2 (Homo sapiens (Human), UniProt Q9UL54); details: H929 live cell
Experimental: as §1

[32] = biological target: p38a (Homo sapiens (Human), UniProt Q16539); details: H929 live cell, range class, read-out: % inhibition
Outline: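 H929 live-cell screen at 10 μM, run in duplicate. Kinase occupancy was assessed via the KiNativ platform, with IC50 determined by mass spectrometry.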

[33] = biological target: p70S6Kb (Homo sapiens (Human), UniProt Q9UBS0); details: H929 live cell
Experimental: as §1

[34] = range class, read-out: % inhibition

NuaK1, sequence (O60285 whole entry): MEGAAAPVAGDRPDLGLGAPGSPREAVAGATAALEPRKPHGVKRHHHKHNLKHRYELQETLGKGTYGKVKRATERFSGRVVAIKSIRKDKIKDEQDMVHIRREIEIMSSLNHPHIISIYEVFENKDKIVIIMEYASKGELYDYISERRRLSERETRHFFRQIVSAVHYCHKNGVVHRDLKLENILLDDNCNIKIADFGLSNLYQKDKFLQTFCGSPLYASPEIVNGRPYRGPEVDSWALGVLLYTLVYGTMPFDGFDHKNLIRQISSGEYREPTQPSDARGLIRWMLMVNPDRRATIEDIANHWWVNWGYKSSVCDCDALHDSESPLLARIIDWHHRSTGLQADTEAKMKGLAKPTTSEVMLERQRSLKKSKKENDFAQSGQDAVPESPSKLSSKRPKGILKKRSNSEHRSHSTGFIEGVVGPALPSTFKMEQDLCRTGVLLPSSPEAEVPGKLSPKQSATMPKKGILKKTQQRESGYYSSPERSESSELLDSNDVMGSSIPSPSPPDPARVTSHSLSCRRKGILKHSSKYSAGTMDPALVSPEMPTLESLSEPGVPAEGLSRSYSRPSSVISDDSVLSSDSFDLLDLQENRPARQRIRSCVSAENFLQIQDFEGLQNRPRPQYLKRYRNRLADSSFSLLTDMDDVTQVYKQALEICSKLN
AKT1, sequence (P31749 whole entry): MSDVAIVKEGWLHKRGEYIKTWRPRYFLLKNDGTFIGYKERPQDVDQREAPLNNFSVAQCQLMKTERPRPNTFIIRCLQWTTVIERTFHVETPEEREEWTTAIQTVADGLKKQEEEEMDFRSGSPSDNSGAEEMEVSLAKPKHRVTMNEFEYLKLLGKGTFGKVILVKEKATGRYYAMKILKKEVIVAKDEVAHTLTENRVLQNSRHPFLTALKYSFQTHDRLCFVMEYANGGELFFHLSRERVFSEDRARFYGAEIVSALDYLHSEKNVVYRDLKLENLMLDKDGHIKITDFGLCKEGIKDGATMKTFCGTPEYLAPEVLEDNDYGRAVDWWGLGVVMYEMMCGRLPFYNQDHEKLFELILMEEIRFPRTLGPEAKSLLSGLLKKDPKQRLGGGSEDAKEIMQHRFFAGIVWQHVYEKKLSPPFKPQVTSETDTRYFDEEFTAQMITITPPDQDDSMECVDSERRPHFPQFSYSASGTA
CaMK1d, sequence (Q8IU85 whole entry): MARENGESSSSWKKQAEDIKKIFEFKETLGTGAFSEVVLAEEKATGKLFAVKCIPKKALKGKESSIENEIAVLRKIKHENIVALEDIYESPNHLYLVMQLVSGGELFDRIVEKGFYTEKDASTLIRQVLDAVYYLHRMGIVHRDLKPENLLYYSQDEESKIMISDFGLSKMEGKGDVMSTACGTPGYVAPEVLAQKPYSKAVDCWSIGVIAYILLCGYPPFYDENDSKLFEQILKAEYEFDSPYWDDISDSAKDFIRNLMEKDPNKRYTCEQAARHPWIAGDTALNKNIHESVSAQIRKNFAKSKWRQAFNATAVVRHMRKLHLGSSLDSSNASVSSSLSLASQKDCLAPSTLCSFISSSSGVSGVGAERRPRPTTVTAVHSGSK
TAO2, sequence (Q9UL54 whole entry): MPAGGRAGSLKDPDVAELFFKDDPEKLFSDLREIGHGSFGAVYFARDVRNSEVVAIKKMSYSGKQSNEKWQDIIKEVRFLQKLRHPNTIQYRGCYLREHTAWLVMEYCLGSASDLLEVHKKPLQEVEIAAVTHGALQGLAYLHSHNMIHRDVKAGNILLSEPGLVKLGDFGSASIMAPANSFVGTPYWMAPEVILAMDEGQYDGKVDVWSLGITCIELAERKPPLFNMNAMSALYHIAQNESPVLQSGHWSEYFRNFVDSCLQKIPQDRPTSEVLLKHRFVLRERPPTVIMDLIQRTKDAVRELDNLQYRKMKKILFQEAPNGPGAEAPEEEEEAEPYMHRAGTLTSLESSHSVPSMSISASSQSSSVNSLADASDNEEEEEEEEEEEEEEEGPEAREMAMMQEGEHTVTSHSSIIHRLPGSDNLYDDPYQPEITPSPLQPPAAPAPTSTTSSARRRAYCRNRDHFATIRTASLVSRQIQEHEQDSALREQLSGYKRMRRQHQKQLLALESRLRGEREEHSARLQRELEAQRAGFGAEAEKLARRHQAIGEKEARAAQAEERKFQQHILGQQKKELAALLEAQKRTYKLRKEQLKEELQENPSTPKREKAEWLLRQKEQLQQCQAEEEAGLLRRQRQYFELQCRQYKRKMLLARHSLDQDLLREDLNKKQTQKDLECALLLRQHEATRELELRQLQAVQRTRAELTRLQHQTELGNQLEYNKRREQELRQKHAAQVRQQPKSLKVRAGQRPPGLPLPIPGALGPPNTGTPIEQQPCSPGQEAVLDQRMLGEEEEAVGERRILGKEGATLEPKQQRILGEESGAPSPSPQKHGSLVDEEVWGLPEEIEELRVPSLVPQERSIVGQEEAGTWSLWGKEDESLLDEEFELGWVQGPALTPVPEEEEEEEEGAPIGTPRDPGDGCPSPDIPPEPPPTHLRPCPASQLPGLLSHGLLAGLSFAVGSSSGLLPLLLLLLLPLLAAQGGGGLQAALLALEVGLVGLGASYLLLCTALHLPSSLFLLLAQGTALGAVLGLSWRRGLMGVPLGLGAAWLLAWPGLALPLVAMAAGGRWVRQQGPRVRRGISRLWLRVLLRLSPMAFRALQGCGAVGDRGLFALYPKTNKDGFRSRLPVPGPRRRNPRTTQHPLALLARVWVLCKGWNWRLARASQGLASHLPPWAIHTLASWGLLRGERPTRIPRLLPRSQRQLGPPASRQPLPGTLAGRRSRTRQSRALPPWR
MSK1 domain1, sequence (O75582 whole entry, the tested form may be a part): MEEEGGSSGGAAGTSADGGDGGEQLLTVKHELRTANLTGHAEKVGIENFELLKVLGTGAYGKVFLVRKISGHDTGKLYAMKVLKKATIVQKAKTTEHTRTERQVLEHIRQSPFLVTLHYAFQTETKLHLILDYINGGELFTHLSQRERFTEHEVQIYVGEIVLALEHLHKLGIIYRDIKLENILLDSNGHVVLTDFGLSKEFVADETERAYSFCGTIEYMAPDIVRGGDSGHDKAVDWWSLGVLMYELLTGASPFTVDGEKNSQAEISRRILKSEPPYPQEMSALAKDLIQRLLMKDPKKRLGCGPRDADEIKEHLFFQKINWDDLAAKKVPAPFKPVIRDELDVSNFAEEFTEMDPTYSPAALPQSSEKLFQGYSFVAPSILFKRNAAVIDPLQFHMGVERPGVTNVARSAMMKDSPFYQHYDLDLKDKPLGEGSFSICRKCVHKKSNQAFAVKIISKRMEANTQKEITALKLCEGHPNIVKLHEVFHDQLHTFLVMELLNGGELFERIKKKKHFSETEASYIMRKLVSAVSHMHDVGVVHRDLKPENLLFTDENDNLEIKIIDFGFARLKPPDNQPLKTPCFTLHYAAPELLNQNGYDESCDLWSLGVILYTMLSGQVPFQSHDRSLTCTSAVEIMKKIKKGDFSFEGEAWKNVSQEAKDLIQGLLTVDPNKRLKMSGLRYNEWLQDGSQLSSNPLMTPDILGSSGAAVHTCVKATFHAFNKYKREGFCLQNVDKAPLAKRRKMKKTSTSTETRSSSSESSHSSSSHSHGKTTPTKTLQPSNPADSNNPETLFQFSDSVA
MAP3K1, sequence (Q13233 whole entry): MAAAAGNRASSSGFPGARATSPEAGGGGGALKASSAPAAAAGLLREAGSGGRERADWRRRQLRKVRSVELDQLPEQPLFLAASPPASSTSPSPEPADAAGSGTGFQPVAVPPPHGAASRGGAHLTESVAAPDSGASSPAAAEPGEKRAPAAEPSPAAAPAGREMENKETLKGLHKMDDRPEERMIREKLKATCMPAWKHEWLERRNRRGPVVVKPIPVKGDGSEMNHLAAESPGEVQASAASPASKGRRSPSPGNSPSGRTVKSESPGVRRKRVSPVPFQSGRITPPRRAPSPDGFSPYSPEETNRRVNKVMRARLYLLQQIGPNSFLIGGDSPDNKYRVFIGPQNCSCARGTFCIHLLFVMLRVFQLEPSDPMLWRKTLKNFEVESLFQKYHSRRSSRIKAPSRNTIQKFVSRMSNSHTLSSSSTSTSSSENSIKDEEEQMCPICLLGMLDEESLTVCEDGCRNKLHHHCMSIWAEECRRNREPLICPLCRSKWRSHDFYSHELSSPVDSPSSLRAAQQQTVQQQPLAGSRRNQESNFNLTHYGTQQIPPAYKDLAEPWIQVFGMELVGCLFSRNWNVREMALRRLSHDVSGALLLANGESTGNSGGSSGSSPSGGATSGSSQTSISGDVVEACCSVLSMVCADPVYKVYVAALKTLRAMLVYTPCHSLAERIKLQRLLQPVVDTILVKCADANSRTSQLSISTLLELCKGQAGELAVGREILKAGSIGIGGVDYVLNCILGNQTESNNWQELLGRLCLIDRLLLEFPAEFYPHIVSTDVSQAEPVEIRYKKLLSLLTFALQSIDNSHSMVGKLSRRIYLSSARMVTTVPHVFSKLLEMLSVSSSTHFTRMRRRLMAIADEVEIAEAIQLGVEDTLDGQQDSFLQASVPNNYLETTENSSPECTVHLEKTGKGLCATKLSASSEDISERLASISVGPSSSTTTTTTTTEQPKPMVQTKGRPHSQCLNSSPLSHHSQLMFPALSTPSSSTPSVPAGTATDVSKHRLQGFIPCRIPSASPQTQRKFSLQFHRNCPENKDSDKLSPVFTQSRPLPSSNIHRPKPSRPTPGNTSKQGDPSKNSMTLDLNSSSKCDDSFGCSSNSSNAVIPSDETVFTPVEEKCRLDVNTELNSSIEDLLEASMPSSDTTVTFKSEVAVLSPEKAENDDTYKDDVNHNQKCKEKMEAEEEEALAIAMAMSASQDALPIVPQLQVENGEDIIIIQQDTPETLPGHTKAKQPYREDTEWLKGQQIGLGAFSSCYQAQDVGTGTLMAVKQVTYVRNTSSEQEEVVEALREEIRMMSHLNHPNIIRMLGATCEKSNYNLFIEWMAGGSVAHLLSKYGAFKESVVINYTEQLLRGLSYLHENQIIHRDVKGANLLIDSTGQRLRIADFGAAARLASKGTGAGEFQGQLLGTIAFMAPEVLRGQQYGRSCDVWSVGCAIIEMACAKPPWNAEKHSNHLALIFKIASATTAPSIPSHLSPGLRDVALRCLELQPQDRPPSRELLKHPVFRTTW

Nc1ncc(-c2ccc(NS(=O)(=O)C3CC3)cc2F)cc1-c1ccc2c(c1)CCNC2=O [Compound I-51, N-(4-(6-amino-5-(1-oxo-1,2,3,4-tetrahydroisoquinolin-6-yl)pyridin-3-yl)-3-fluorophenyl) cyclopropanesulfonamide]
% inhibition ([1]; 10 μM, range class): 0.0%
inhibition (10 μM) [1]: −3.0%
inhibition at 10 µM [2, 34]: 0%
inhibition at 10 µM ([2]; read-out: inhibition (10 μM)): -15.2%
inhibition at 10 µM [3, 34]: 0%
inhibition at 10 µM ([3]; read-out: inhibition (10 μM)): -5.1%
inhibition at 10 µM [4, 34]: 0%
inhibition at 10 µM ([4]; read-out: inhibition (10 μM)): 17.4%
inhibition at 10 µM [5, 34]: 0%
inhibition at 10 µM ([5]; read-out: inhibition (10 μM)): 6.9%
inhibition at 10 µM [6, 34]: 0%
inhibition at 10 µM ([6]; read-out: inhibition (10 μM)): -1.7%
% inhibition ([7]; 10 μM, range class): 0.0%
inhibition (10 μM) [7]: 19.2%
% inhibition ([8]; 10 μM, range class): 0.0%
inhibition (10 μM) [8]: −36.4%
inhibition at 10 µM [9, 34]: > 90%
inhibition at 10 µM ([9]; read-out: inhibition (10 μM)): 93.9%
inhibition at 10 µM [10, 34]: 50 to 75%
inhibition at 10 µM ([10]; read-out: inhibition (10 μM)): 65%
inhibition at 10 µM [11, 34]: 0%
inhibition at 10 µM ([11]; read-out: inhibition (10 μM)): -8.2%
inhibition at 10 µM [12, 34]: 50 to 75%
inhibition at 10 µM ([12]; read-out: inhibition (10 μM)): 72.7%
% inhibition ([13]; 10 μM, range class): 0.0%
inhibition (10 μM) [13]: −5.2%
inhibition at 10 µM [14, 34]: 0%
inhibition at 10 µM ([14]; read-out: inhibition (10 μM)): -3.5%
inhibition at 10 µM [15, 34]: > 90%
inhibition at 10 µM ([15]; read-out: inhibition (10 μM)): 95.8%
inhibition at 10 µM [16, 34]: 0%
inhibition at 10 µM ([16]; read-out: inhibition (10 μM)): 24.2%
inhibition at 10 µM [17, 34]: 0%
inhibition at 10 µM ([17]; read-out: inhibition (10 μM)): 16.3%
% inhibition ([18]; 10 μM, range class): 0.0%
inhibition (10 μM) [18]: 14.9%
inhibition at 10 µM [19, 34]: 0%
inhibition at 10 µM ([19]; read-out: inhibition (10 μM)): 11.4%
inhibition at 10 µM [20, 34]: 0%
inhibition at 10 µM ([20]; read-out: inhibition (10 μM)): -8%
inhibition at 10 µM [21, 34]: 0%
inhibition at 10 µM ([21]; read-out: inhibition (10 μM)): -13%
inhibition (10 μM) [22]: 68.8%
inhibition at 10 µM [22, 34]: 50 to 75%
inhibition at 10 µM ([22]; read-out: inhibition (10 μM)): 71.9%
inhibition at 10 µM [23, 34]: 0%
inhibition at 10 µM ([23]; read-out: inhibition (10 μM)): -39.1%
inhibition at 10 µM [24, 34]: 0%
inhibition at 10 µM ([24]; read-out: inhibition (10 μM)): -13.2%
inhibition at 10 µM [25, 34]: 0%
inhibition at 10 µM ([25]; read-out: inhibition (10 μM)): -146%
inhibition at 10 µM [26, 34]: 0%
inhibition at 10 µM ([26]; read-out: inhibition (10 μM)): -49.1%
inhibition at 10 µM [27, 34]: 0%
inhibition at 10 µM ([27]; read-out: inhibition (10 μM)): 10.2%
inhibition at 10 µM [28, 34]: 0%
inhibition at 10 µM ([28]; read-out: inhibition (10 μM)): 11%
inhibition at 10 µM [29, 34]: 0%
inhibition at 10 µM ([29]; read-out: inhibition (10 μM)): -11.5%
inhibition at 10 µM [30, 34]: 0%
inhibition at 10 µM ([30]; read-out: inhibition (10 μM)): -41%
inhibition at 10 µM [31, 34]: 35 to 40%
inhibition at 10 µM ([31]; read-out: inhibition (10 μM)): 40.9%
inhibition at 10 µM [32]: 0%
inhibition at 10 µM [33, 34]: 0%
inhibition at 10 µM ([33]; read-out: inhibition (10 μM)): 5.5%
